Test: xn = mol fraction of the nth substance listed
Conditions: 100 kPa, Liquid; for viscosity: Concentric cylinders viscometry; for mass density: Vibrating tube method

CCOS(=O)(=O)[O-].CCn1cc[n+](C)c1 [1-ethyl-3-methylimidazolium ethyl sulfate] + CN1CCCC1=O
Conditions	mass density, 313.15 K [kg/m3]	mass density, 318.15 K [kg/m3]	mass density, 323.15 K [kg/m3]	mass density, 328.15 K [kg/m3]	mass density, 333.15 K [kg/m3]	viscosity, 313.15 K [mPa·s]	viscosity, 318.15 K [mPa·s]	viscosity, 323.15 K [mPa·s]	viscosity, 328.15 K [mPa·s]	viscosity, 333.15 K [mPa·s]
x1 = 0.1009	1058.09	1053.91	1049.74	1045.59	1041.42	2.432	2.231	2.061	1.912	1.782
x1 = 0.2012	1091.55	1087.53	1083.52	1079.52	1075.53	4.013	3.668	3.344	3.064	2.804
x1 = 0.3021	1119.03	1115.14	1111.25	1107.38	1103.53	6.231	5.615	5.053	4.575	4.154
x1 = 0.4012	1141.61	1137.84	1134.08	1130.34	1126.61	9.114	8.113	7.216	6.458	5.808
x1 = 0.4973	1160.1	1156.42	1152.75	1149.1	1145.47	12.5	11	9.678	8.585	7.681
x1 = 0.596	1176.69	1173.09	1169.51	1165.95	1162.4	16.76	14.57	12.7	11.16	9.893
x1 = 0.6998	1191.67	1188.15	1184.64	1181.15	1177.67	22.04	18.93	16.34	14.23	12.51
x1 = 0.7961	1204.17	1200.71	1197.26	1193.83	1190.42	27.72	23.58	20.2	17.46	15.27
x1 = 0.8821	1214.27	1210.86	1207.47	1204.1	1200.75	34.42	29	24.63	21.14	18.36
x1 = 1	1226.13	1222.79	1219.46	1216.16	1212.86	47.26	39.25	32.94	27.96	24.09
